Activity calls are given as the source filed them. On the calls: in the data inactive means no Kd found up to 30 µM.
What was measured:
[1] = target: Serine/threonine-protein kinase 38 (Homo sapiens, UniProt Q15208)
[2] = target: Serine/threonine-protein kinase PAK 6 (Homo sapiens, UniProt Q9NQU5)
[3] = target: T1, Tyrosine-protein kinase Mer (Homo sapiens, UniProt Q12866)
T1 sequence (Q12866 whole entry): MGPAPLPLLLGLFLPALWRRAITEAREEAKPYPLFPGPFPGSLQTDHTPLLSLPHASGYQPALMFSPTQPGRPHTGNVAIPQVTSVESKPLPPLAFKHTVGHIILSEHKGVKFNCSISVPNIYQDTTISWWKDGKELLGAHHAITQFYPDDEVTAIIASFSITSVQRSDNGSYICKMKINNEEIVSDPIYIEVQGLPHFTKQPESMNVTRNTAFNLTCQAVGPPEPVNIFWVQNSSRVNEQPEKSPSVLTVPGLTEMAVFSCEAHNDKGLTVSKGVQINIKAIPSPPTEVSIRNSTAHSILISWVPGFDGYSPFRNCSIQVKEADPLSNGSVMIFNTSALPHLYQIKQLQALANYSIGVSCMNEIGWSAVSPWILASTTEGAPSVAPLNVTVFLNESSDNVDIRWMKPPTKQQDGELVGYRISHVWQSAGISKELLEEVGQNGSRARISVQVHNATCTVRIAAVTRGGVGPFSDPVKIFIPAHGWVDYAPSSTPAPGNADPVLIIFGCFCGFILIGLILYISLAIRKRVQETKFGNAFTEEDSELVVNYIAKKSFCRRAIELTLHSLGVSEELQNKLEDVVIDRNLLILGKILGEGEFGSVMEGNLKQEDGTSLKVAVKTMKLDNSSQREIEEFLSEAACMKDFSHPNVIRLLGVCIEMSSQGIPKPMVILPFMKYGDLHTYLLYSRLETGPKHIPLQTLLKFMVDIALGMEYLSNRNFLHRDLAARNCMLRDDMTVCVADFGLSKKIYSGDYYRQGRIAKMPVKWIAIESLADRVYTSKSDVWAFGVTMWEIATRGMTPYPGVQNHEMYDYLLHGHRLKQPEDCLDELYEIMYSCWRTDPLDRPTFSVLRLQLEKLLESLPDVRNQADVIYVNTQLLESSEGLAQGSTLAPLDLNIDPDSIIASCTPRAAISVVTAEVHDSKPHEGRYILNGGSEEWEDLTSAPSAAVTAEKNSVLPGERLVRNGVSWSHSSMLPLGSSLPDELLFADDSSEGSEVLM

[4] = target: T2, Dual specificity mitogen-activated protein kinase kinase 4 (Homo sapiens, UniProt P45985)
T2 sequence (P45985 whole entry): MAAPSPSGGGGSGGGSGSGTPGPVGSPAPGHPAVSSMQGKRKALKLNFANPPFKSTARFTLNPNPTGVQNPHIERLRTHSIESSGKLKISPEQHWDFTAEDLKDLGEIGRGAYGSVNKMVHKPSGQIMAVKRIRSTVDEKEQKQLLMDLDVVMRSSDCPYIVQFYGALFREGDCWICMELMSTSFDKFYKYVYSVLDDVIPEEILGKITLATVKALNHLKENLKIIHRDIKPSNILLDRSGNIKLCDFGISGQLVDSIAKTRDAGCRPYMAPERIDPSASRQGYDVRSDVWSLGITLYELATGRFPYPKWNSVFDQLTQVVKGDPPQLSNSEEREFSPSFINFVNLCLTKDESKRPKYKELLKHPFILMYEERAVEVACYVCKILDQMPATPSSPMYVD

[5] = target: MAP kinase-activated protein kinase 3 (Homo sapiens, UniProt Q16644)
Chain of MAP kinase-activated protein kinase 3 (Q16644 whole entry): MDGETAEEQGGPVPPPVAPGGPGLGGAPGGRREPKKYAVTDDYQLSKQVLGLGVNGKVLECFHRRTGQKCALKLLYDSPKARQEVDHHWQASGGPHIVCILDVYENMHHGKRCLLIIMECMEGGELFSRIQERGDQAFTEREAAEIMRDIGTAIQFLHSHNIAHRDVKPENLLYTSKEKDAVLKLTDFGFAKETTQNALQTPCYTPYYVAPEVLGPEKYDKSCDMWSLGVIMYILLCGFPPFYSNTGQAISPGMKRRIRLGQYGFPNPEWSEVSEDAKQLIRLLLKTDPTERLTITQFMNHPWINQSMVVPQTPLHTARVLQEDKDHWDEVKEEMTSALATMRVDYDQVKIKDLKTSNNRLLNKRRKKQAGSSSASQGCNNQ

[6] = target: Eukaryotic peptide chain release factor GTP-binding subunit ERF3B (Homo sapiens, UniProt Q8IYD1)
Chain of Eukaryotic peptide chain release factor GTP-binding subunit ERF3B (Q8IYD1 whole entry): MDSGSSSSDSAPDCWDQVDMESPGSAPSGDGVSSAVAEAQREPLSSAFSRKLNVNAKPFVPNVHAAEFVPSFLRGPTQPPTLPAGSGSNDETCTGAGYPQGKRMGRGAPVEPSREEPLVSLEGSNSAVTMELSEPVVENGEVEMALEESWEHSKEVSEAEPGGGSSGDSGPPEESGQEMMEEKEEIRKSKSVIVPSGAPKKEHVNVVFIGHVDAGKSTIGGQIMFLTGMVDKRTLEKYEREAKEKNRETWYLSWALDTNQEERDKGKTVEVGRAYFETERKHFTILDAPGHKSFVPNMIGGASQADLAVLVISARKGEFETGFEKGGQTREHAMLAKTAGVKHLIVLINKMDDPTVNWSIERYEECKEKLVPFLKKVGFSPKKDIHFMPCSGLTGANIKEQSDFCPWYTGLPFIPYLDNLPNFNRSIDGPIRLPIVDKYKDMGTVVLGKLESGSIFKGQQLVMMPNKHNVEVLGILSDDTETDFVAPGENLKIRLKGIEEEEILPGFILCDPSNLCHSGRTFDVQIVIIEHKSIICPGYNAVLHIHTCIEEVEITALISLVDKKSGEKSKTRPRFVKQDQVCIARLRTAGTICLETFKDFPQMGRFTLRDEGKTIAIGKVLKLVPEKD

[7] = target: Dual specificity tyrosine-phosphorylation-regulated kinase 1B (Homo sapiens, UniProt Q9Y463)
Chain of Dual specificity tyrosine-phosphorylation-regulated kinase 1B (Q9Y463 whole entry): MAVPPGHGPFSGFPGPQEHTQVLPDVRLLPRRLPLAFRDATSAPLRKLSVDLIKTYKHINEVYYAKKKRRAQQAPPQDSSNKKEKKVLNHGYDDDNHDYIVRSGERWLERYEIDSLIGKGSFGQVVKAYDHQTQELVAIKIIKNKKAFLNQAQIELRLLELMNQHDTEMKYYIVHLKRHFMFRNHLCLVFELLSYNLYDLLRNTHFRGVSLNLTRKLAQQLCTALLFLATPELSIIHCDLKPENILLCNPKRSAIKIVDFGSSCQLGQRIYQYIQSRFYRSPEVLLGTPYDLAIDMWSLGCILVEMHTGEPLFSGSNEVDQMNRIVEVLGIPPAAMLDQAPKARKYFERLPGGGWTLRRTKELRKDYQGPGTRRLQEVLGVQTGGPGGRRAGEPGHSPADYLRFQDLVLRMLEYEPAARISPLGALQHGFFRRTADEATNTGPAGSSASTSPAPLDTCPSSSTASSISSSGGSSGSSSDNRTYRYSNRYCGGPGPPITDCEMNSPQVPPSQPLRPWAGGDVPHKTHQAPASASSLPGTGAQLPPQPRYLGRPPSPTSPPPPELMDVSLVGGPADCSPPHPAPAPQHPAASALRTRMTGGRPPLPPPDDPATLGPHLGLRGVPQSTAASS

[8] = target: Tyrosine-protein kinase Fgr (Homo sapiens, UniProt P09769)
Chain of Tyrosine-protein kinase Fgr (P09769 whole entry): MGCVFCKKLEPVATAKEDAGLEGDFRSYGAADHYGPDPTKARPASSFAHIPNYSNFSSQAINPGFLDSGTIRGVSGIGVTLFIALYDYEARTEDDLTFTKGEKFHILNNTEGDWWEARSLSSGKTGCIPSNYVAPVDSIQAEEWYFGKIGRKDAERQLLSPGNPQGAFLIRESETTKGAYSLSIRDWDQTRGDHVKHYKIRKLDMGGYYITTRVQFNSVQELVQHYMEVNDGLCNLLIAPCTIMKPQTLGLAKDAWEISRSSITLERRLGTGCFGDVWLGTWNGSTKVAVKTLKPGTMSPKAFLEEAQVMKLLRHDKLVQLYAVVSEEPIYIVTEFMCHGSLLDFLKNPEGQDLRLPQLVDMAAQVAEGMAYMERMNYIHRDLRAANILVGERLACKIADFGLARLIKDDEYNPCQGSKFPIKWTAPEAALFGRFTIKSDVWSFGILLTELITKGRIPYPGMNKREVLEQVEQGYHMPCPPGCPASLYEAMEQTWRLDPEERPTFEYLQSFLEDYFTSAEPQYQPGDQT

[9] = target: Tyrosine-protein kinase JAK2 (Homo sapiens, UniProt O60674)
Chain of Tyrosine-protein kinase JAK2 (O60674 whole entry): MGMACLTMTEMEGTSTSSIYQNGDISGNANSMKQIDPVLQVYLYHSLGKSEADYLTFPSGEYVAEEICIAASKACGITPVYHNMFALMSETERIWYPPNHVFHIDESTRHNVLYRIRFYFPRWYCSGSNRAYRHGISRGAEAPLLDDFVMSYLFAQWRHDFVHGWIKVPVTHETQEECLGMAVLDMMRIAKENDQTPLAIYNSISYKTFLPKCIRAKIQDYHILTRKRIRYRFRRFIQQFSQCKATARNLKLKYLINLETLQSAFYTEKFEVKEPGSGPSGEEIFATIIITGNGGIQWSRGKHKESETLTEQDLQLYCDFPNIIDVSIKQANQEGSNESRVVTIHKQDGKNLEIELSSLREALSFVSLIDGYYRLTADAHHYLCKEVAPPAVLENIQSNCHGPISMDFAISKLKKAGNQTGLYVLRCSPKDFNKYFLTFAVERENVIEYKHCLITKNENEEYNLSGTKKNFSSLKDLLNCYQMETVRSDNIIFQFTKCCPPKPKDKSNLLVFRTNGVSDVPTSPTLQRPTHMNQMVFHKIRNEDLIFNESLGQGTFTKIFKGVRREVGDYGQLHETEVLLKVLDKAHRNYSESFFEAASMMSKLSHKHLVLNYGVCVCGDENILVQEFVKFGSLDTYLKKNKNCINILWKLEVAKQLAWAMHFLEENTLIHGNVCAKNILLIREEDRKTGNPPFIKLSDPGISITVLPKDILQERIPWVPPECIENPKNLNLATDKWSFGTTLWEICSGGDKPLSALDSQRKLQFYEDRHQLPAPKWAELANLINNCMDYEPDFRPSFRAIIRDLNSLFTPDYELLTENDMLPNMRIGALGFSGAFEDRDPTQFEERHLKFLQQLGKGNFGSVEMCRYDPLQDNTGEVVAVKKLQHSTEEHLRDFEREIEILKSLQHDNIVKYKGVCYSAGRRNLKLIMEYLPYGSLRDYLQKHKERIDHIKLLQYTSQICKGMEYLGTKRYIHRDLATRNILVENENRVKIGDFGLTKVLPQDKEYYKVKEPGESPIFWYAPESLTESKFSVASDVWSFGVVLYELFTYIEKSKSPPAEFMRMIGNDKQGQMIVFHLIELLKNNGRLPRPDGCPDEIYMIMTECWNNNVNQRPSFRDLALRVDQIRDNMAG

[10] = target: Cyclin-dependent kinase 10 (Homo sapiens, UniProt Q15131)
Chain of Cyclin-dependent kinase 10 (Q15131 whole entry): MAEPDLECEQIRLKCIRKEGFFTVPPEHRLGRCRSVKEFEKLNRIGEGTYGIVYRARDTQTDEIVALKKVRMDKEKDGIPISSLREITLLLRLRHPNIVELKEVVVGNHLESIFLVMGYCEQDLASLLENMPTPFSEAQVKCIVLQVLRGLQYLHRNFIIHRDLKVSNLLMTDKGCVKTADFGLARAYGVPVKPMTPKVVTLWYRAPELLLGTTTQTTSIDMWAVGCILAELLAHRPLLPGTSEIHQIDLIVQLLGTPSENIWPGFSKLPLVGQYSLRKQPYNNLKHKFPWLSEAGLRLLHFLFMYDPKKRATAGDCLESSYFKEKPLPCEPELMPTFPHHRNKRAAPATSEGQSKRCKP

Chain of Serine/threonine-protein kinase PAK 6 (Q9NQU5 whole entry): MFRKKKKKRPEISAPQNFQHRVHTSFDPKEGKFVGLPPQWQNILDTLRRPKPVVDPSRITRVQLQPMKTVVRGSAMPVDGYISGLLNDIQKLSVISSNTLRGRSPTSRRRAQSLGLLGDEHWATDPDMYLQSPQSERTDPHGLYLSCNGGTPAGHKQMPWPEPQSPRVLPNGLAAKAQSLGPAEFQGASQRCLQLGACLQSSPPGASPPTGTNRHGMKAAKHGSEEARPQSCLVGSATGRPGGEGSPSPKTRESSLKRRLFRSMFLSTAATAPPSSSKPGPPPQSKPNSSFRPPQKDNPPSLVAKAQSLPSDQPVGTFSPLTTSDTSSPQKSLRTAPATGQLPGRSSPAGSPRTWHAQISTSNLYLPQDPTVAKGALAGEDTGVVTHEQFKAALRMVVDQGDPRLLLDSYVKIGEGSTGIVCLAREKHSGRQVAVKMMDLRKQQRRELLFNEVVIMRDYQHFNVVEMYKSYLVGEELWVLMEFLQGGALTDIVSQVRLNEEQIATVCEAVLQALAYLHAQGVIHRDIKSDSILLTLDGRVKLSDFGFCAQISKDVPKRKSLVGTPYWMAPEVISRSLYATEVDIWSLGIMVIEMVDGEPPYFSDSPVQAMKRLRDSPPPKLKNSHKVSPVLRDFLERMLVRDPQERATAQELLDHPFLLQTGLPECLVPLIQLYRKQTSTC
Chain of Serine/threonine-protein kinase 38 (Q15208 whole entry): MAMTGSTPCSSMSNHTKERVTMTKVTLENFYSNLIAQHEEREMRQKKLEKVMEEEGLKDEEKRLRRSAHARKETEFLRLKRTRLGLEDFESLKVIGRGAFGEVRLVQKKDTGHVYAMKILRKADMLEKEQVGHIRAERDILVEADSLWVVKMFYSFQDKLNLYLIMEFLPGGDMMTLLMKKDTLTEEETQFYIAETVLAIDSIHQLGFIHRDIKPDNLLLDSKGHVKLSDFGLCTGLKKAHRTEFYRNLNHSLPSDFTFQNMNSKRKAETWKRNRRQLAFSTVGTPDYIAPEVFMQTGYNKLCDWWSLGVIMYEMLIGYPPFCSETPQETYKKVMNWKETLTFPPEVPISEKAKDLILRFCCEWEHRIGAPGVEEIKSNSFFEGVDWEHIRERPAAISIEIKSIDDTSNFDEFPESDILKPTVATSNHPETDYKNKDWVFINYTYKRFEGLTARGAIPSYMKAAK

Row | SMILES | Kd [1] | Kd [2] | Kd [3] | Kd [4] | Kd [5] | Kd [6] | further results
1 | CCS(=O)(=O)N1CC(CC#N)(n2cc(-c3ncnc4[nH]ccc34)cn2)C1 [BARICITINIB] | – | > 30 µM (inactive) | – | – | > 30 µM (inactive) | > 30 µM (inactive) | –
2 | CN1N=C(N)c2cn([C@@H]3O[C@H](COP(=O)(O)O)[C@@H](O)[C@H]3O)c3ncnc1c23 [TRICIRIBINE PHOSPHATE] | – | – | – | – | – | – | Kd [7]: > 30 µM (inactive); Kd [8]: > 30 µM (inactive)
3 | CNS(=O)(=O)Nc1nccc(Cc2c(C)c3ccc(Oc4ncccn4)cc3oc2=O)c1F [AVUTOMETINIB] | – | – | – | > 30 µM (inactive) | > 30 µM (inactive) | – | Kd [9]: > 30 µM (inactive)
4 | COc1cc2nccc(Oc3ccc(NC(=O)NC4CC4)c(Cl)c3)c2cc1C(N)=O [LENVATINIB] | – | – | – | – | > 30 µM (inactive) | – | Kd [9]: > 30 µM (inactive)
5 | Cc1cc2c(F)c(Oc3ncnn4cc(OC[C@@H](C)OC(=O)[C@H](C)N)c(C)c34)ccc2[nH]1 [BRIVANIB ALANINATE] | – | > 30 µM (inactive) | – | > 30 µM (inactive) | > 30 µM (inactive) | – | Kd [7]: > 30 µM (inactive); Kd [9]: > 30 µM (inactive)
6 | Cc1c(F)cc(C(=O)NC2CC2)cc1-c1ccc(C(=O)NCC(C)(C)C)cn1 [LOSMAPIMOD] | > 30 µM (inactive) | – | > 30 µM (inactive) | – | – | – | –
7 | CCn1c(=O)c(-c2cc[nH]n2)cc2c(C)nc(N)nc21 [VOXTALISIB] | > 30 µM (inactive) | – | – | – | – | > 30 µM (inactive) | –
8 | O=C(Nc1cccc(Cl)c1)Nc1ncc(CCNc2ncnc3ccsc23)s1 [SNS-314] | – | – | – | > 30 µM (inactive) | – | > 30 µM (inactive) | Kd [10]: > 30 µM (inactive)
9 | O=c1sn(-c2cccc3ccccc23)c(=O)n1Cc1ccccc1 [TIDEGLUSIB] | – | > 30 µM (inactive) | > 30 µM (inactive) | – | – | > 30 µM (inactive) | Kd [10]: > 30 µM (inactive)
10 | COc1cc(OC)c(/C=C/S(=O)(=O)Cc2ccc(OC)c(NCC(=O)O)c2)c(OC)c1 [RIGOSERTIB] | > 30 µM (inactive) | > 30 µM (inactive) | – | – | – | – | Kd [8]: > 30 µM (inactive)
11 | CN1CCN(c2ccc3nc(-c4c(N)c5c(F)cccc5[nH]c4=O)[nH]c3c2)CC1 [DOVITINIB] | – | – | – | – | – | – | Kd [10]: > 30 µM (inactive)
12 | CN(C)C(=O)c1cc2cnc(Nc3ccc(N4CCNCC4)cn3)nc2n1C1CCCC1 [RIBOCICLIB] | – | – | – | > 30 µM (inactive) | – | – | –
13 | COC(=O)N[C@@H](C)CNc1nccc(-c2cn(C(C)C)nc2-c2cc(Cl)cc(NS(C)(=O)=O)c2F)n1 [ENCORAFENIB] | – | – | > 30 µM (inactive) | – | – | > 30 µM (inactive) | Kd [7]: > 30 µM (inactive); Kd [9]: > 30 µM (inactive); Kd [10]: > 30 µM (inactive)
14 | COCCNCc1ccc(-c2cc3nccc(Oc4ccc(NC(=S)NC(=O)Cc5ccc(F)cc5)cc4F)c3s2)nc1 [GLESATINIB] | – | > 30 µM (inactive) | – | > 30 µM (inactive) | > 30 µM (inactive) | – | –
15 | N[C@@H]1CCCN(c2c(/C=C3\SC(=O)NC3=O)cccc2-c2ccccc2)C1 | – | – | – | – | – | > 30 µM (inactive) | –
16 | CNC(=O)CN1CCC(Oc2cc3c(Nc4cccc(Cl)c4F)ncnc3cc2OC)CC1 [SAPITINIB] | – | > 30 µM (inactive) | > 30 µM (inactive) | > 30 µM (inactive) | – | – | –
17 | Cn1ncc(Cl)c1-c1cc(C(=O)N[C@H](CN)Cc2cccc(F)c2)sc1Cl [AFURESERTIB] | – | > 30 µM (inactive) | – | – | – | – | –
18 | CN1CCC(COc2cnc(-c3cccc(Cn4nc(-c5cccc(C#N)c5)ccc4=O)c3)nc2)CC1 [TEPOTINIB] | – | > 30 µM (inactive) | – | > 30 µM (inactive) | – | – | –
19 | C[C@@H]1CN(Cc2ccc(F)cc2)[C@@H](C)CN1C(=O)c1cc2c(C(=O)C(=O)N(C)C)cn(C)c2cc1Cl [TALMAPIMOD] | > 30 µM (inactive) | > 30 µM (inactive) | – | – | > 30 µM (inactive) | – | –
20 | CO[C@H]1C[C@@H]2CC[C@@H](C)[C@@](O)(O2)C(=O)C(=O)N2CCCC[C@H]2C(=O)O[C@H]([C@H](C)C[C@@H]2CC[C@@H](OCCO)[C@H](OC)C2)CC(=O)[C@H](C)/C=C(\C)[C@@H](O)[C@@H](OC)C(=O)[C@H](C)C[C@H](C)/C=C/C=C/C=C/1C [EVEROLIMUS] | – | – | – | – | – | > 30 µM (inactive) | Kd [8]: > 30 µM (inactive)
21 | OCCn1cc(-c2cnc3nnn(Cc4ccc5ncccc5c4)c3n2)cn1 [PF-04217903] | > 30 µM (inactive) | > 30 µM (inactive) | > 30 µM (inactive) | > 30 µM (inactive) | > 30 µM (inactive) | > 30 µM (inactive) | Kd [8]: > 30 µM (inactive)
22 | Cn1cc(-c2ccc(F)c(C(F)(F)F)c2)nc1C1CCN(c2ncnc3[nH]ncc23)CC1 [LY-2584702] | > 30 µM (inactive) | – | – | – | – | – | –
23 | COc1cc2nccc(Oc3ccc(NC(=O)Nc4cc(C)on4)c(Cl)c3)c2cc1OC [TIVOZANIB] | – | > 30 µM (inactive) | > 30 µM (inactive) | > 30 µM (inactive) | – | – | Kd [10]: > 30 µM (inactive)
24 | CC(C)Nc1cc(-c2c[nH]c(C(=O)N[C@H](CO)c3cccc(Cl)c3)c2)c(Cl)cn1 [ULIXERTINIB] | – | > 30 µM (inactive) | > 30 µM (inactive) | > 30 µM (inactive) | > 30 µM (inactive) | > 30 µM (inactive) | Kd [7]: > 30 µM (inactive); Kd [10]: > 30 µM (inactive)
25 | CNC(=O)c1ccc(C)c(-n2c(C)cc(OCc3ccc(F)cc3F)c(Br)c2=O)c1 [PH-797804] | > 30 µM (inactive) | > 30 µM (inactive) | – | – | – | – | Kd [8]: > 30 µM (inactive)
26 | O=C(O)[C@]1(Cc2cccc(Nc3nccs3)n2)CC[C@@H](Oc2cccc(Cl)c2F)CC1 [MK-5108] | > 30 µM (inactive) | > 30 µM (inactive) | – | > 30 µM (inactive) | > 30 µM (inactive) | > 30 µM (inactive) | Kd [7]: > 30 µM (inactive); Kd [9]: 0.025 µM (active); Kd [8]: > 30 µM (inactive)
27 | Cc1ccc(-n2nc(C(C)(C)C)cc2NC(=O)NCc2cc(F)ccc2Oc2ccc3c(cnn3CCO)c2)cc1 [PEXMETINIB] | > 30 µM (inactive) | > 30 µM (inactive) | 2.81 µM | > 30 µM (inactive) | > 30 µM (inactive) | – | –
28 | CNC(=O)c1ccc(-c2cnc3ncc(Cc4ccc5ncccc5c4)n3n2)cc1F [CAPMATINIB] | > 30 µM (inactive) | > 30 µM (inactive) | > 30 µM (inactive) | – | – | > 30 µM (inactive) | –

Now from value to compound, other results behind:

Row | Kd [1] | Kd [2] | Kd [3] | Kd [4] | Kd [5] | Kd [6] | SMILES | further results
29 | > 30 µM (inactive) | > 30 µM (inactive) | – | – | – | – | C[C@@H](Nc1cc(F)cc(F)c1)c1cc(C(=O)N(C)C)cc2c(=O)cc(N3CCOCC3)oc12 [AZD-8186] | –
30 | > 30 µM (inactive) | > 30 µM (inactive) | > 30 µM (inactive) | > 30 µM (inactive) | – | – | Cc1cc([C@@H](C)Nc2ccccc2C(=O)O)c2nc(N3CCOCC3)cc(=O)n2c1 [AZD-6482] | –
31 | > 30 µM (inactive) | > 30 µM (inactive) | – | > 30 µM (inactive) | – | – | Cc1cc(Nc2cc(N3CCN(C)CC3)nc(/C=C/c3ccccc3)n2)n[nH]1 [ENMD-2076] | Kd [10]: > 30 µM (inactive)
32 | – | > 30 µM (inactive) | – | – | – | – | COc1cc(N2CCC(N3CCN(C)CC3)CC2)ccc1Nc1ncnc(Nc2ccccc2S(=O)(=O)C(C)C)n1 [ASP-3026] | –
33 | – | > 30 µM (inactive) | > 30 µM (inactive) | – | > 30 µM (inactive) | – | CN1CCC(CNc2ccc3ncc(-c4cccc(OC(F)(F)F)c4)n3n2)CC1 [SGI-1776] | –
34 | – | > 30 µM (inactive) | – | – | – | – | Cn1cc(-c2ccc3nnc(C(F)(F)c4ccc5ncccc5c4)n3n2)cn1 [JNJ-38877605] | Kd [10]: > 30 µM (inactive); Kd [8]: > 30 µM (inactive)
35 | – | – | – | > 30 µM (inactive) | – | – | Cc1nc(N)sc1-c1ccnc(Nc2ccc(N3CCOCC3)cc2)n1 [CYC-116] | Kd [8]: > 30 µM (inactive)
36 | – | > 30 µM (inactive) | – | > 30 µM (inactive) | – | – | COc1ccc(-c2ccc3c(N4CCOC[C@@H]4C)nc(N4CCOC[C@@H]4C)nc3n2)cc1CO [AZD-8055] | Kd [7]: > 30 µM (inactive)

Source: ChEMBL document CHEMBL3991601, “The target landscape of clinical kinase drugs” (Science, 2017)
